Data published in US20200170256A1, “Amonia Based Piscicide” (priority 2018, published 2020).

How the values were obtained:
mitochondrial complex I = settings: 2011 NIH study; cited from earlier work
fathead minnows = fathead minnows exposed to the piscicide in 100-gallon laboratory tanks (effective amount of ammonium chloride); assay type: in vivo
Method: During each replicate trial, ten fathead minnows were exposed to the pisticide over a four hour period in 100-gallon laboratory tanks at 20° C.

| Structure (SMILES) | role in inhibiting mitochondrial complex I among 31 tested piscicides (mitochondrial complex I) | effective amount of ammonium chloride alone (approximate same effect) (fathead minnows) |
| --- | --- | --- |
| C=C(C)[C@H]1Cc2c(ccc3c2O[C@@H]2COc4cc(OC)c(OC)cc4[C@@H]2C3=O)O1 [Rotenone] | greatest role in inhibiting mitochondrial complex I | – |
| Cl.N [ammonium chloride] | – | 0.6-0.8 grams per gallon |
